{"source": "patent US9211310B2", "about": "“Use of a Chinese medicine composition in preparing medicaments for treating secondary prevention of myocardial infarction” (TASLY PHARMACEUTICAL GROUP CO., LTD, priority 2010, dated 2015)", "system": "patients after acute myocardial infarction", "experiment": "Life quality, Seattle Angina Questionnaire (SAQ), same clinical trial", "assay_type": "in vivo, human", "settings": "Follow-up", "excerpt": "3508 patients who were in accordance with the diagnostic standards of AMI for 28 days to 2 years and differentiated as Qi deficiency and blood stagnation syndrome by TCM were studied. 0.5 g Chinese medicine composition prepared by the method of EXAMPLE 1 (Coded as QSYQ) was administrated half an hour after meal, 3 times per day.\nThere were 19 questions in the Seattle angina questionnaire (SAQ), including 5 parts: physical limitation (PL), anginal stability (AS), anginal frequency (AF), treatment satisfaction (TS) and disease perception (DP). After being given necessary explanation by doctors, the questions were answered independently by patients.\nThey included the overall survival time, angina pectoris score, TCM symptom score and life quality score, where angina pectoris score, TCM symptom score and life quality score were evaluated at randomization, in 1st, 3rd, 6th, 9th, 12th month after treatment and 18th month after follow-up.\nAll evaluation results of SAQ were described during the period of observation, and Wilcoxon rank sum test was used for inter-group comparison.\nThe evaluation results in the SAQ were depicted in different observations, and inter-group comparison was tested by Wilcoxon Rank-sum test.", "data": [{"compound": "CC(=O)Oc1ccccc1C(=O)O", "note": "[Control group, aspirine]", "values": [{"measurement": "SAQ Question 1-3: Slightly limited, number of patients", "setting": "FAS", "value": 190}, {"measurement": "SAQ Question 1-3: Slightly limited, percent of patients", "setting": "FAS", "value": "(13.17%)"}, {"measurement": "SAQ Question 1-4: Mildly limited, number of patients", "setting": "FAS", "value": 177}, {"measurement": "SAQ Question 1-4: Mildly limited, percent of patients", "setting": "FAS", "value": "(12.28%)"}, {"measurement": "SAQ Question 1-4: Moderately limited, number of patients", "setting": "FAS", "value": 38}, {"measurement": "SAQ Question 1-4: Moderately limited, percent of patients", "setting": "FAS", "value": "(2.64%)"}, {"measurement": "SAQ Question 1-4: Not limited, number of patients", "setting": "FAS", "value": 775}, {"measurement": "SAQ Question 1-4: Not limited, percent of patients", "setting": "FAS", "value": "(53.78%)"}, {"measurement": "SAQ Question 1-4: Other reasons, number of patients", "setting": "FAS", "value": 10}, {"measurement": "SAQ Question 1-4: Other reasons, percent of patients", "setting": "FAS", "value": "(0.69%)"}, {"measurement": "SAQ Question 1-4: Severely limited, number of patients", "setting": "FAS", "value": 5}, {"measurement": "SAQ Question 1-4: Severely limited, percent of patients", "setting": "FAS", "value": "(0.35%)"}, {"measurement": "SAQ Question 1-4: Slightly limited, number of patients", "setting": "FAS", "value": 436}, {"measurement": "SAQ Question 1-4: Slightly limited, percent of patients", "setting": "FAS", "value": "(30.26%)"}, {"measurement": "SAQ Question 1-5: Mildly limited, number of patients", "setting": "FAS", "value": 189}, {"measurement": "SAQ Question 1-5: Mildly limited, percent of patients", "setting": "FAS", "value": "(13.12%)"}, {"measurement": "SAQ Question 1-5: Moderately limited, number of patients", "setting": "FAS", "value": 57}, {"measurement": "SAQ Question 1-5: Moderately limited, percent of patients", "setting": "FAS", "value": "(3.96%)"}, {"measurement": "SAQ Question 1-5: Not limited, number of patients", "setting": "FAS", "value": 783}, {"measurement": "SAQ Question 1-5: Not limited, percent of patients", "setting": "FAS", "value": "(54.34%)"}, {"measurement": "SAQ Question 1-5: Other reasons, number of patients", "setting": "FAS", "value": 8}, {"measurement": "SAQ Question 1-5: Other reasons, percent of patients", "setting": "FAS", "value": "(0.56%)"}, {"measurement": "SAQ Question 1-5: Severely limited, number of patients", "setting": "FAS", "value": 9}, {"measurement": "SAQ Question 1-5: Severely limited, percent of patients", "setting": "FAS", "value": "(0.62%)"}, {"measurement": "SAQ Question 1-5: Slightly limited, number of patients", "setting": "FAS", "value": 395}, {"measurement": "SAQ Question 1-5: Slightly limited, percent of patients", "setting": "FAS", "value": "(27.41%)"}, {"measurement": "SAQ Question 1-9: Mildly limited, % of cases", "setting": "FAS", "value": "(20.40%)"}, {"measurement": "SAQ Question 1-9: Mildly limited, cases", "setting": "FAS", "value": 285}, {"measurement": "SAQ Question 1-9: Moderately limited, % of cases", "setting": "FAS", "value": "(21.19%)"}, {"measurement": "SAQ Question 1-9: Moderately limited, cases", "setting": "FAS", "value": 296}, {"measurement": "SAQ Question 1-9: Not limited, % of cases", "setting": "FAS", "value": "(6.08%)"}, {"measurement": "SAQ Question 1-9: Not limited, cases", "setting": "FAS", "value": 85}, {"measurement": "SAQ Question 1-9: Other reasons, % of cases", "setting": "FAS", "value": "(4.65%)"}, {"measurement": "SAQ Question 1-9: Other reasons, cases", "setting": "FAS", "value": 65}, {"measurement": "SAQ Question 1-9: Severely-limited, % of cases", "setting": "FAS", "value": "(27.13%)"}, {"measurement": "SAQ Question 1-9: Severely-limited, cases", "setting": "FAS", "value": 379}, {"measurement": "SAQ Question 1-9: Slightly limited, % of cases", "setting": "FAS", "value": "(20.54%)"}, {"measurement": "SAQ Question 1-9: Slightly limited, cases", "setting": "FAS", "value": 287}, {"measurement": "SAQ 2nd question: Clearly increased, % of cases", "setting": "PP", "value": "(0.21%)"}, {"measurement": "SAQ 2nd question: Clearly increased, cases", "setting": "PP", "value": 3}, {"measurement": "SAQ 2nd question: Clearly reduced, % of cases", "setting": "PP", "value": "(27.66%)"}, {"measurement": "SAQ 2nd question: Clearly reduced, cases", "setting": "PP", "value": 390}, {"measurement": "SAQ 2nd question: Same, % of cases", "setting": "PP", "value": "(39.15%)"}, {"measurement": "SAQ 2nd question: Same, cases", "setting": "PP", "value": 552}, {"measurement": "SAQ 2nd question: Slightly increased, % of cases", "setting": "PP", "value": "(7.38%)"}, {"measurement": "SAQ 2nd question: Slightly increased, cases", "setting": "PP", "value": 104}, {"measurement": "SAQ 2nd question: Slightly reduced, % of cases", "setting": "PP", "value": "(25.60%)"}, {"measurement": "SAQ 2nd question: Slightly reduced, cases", "setting": "PP", "value": 361}, {"measurement": "SAQ 3rd question: 1-2 times per week, % of cases", "setting": "PP", "value": "(25.60%)"}, {"measurement": "SAQ 3rd question: 1-2 times per week, cases", "setting": "PP", "value": 361}, {"measurement": "SAQ 3rd question: 1-3 times per day, % of cases", "setting": "PP", "value": "(7.38%)"}, {"measurement": "SAQ 3rd question: 1-3 times per day, cases", "setting": "PP", "value": 104}, {"measurement": "SAQ 3rd question: <1 time per week, % of cases", "setting": "PP", "value": "(27.66%)"}, {"measurement": "SAQ 3rd question: <1 time per week, cases", "setting": "PP", "value": 390}, {"measurement": "SAQ 3rd question: No onset, % of cases", "setting": "PP", "value": "(0.00%)"}, {"measurement": "SAQ 3rd question: No onset, cases", "setting": "PP", "value": 0}, {"measurement": "SAQ 3rd question: ≧3 times per week, % of cases", "setting": "PP", "value": "(39.15%)"}, {"measurement": "SAQ 3rd question: ≧3 times per week, cases", "setting": "PP", "value": 552}, {"measurement": "SAQ 3rd question: ≧4 times per day, % of cases", "setting": "PP", "value": "(0.21%)"}, {"measurement": "SAQ 3rd question: ≧4 times per day, cases", "setting": "PP", "value": 3}, {"measurement": "SAQ Question 1-3: Mildly limited, number of patients", "setting": "PP", "value": 30}, {"measurement": "SAQ Question 1-3: Mildly limited, percent of patients", "setting": "PP", "value": "(2.13%)"}, {"measurement": "SAQ Question 1-3: Moderately limited, number of patients", "setting": "PP", "value": 6}, {"measurement": "SAQ Question 1-3: Moderately limited, percent of patients", "setting": "PP", "value": "(0.43%)"}, {"measurement": "SAQ Question 1-3: Not limited, number of patients", "setting": "PP", "value": 1179}, {"measurement": "SAQ Question 1-3: Not limited, percent of patients", "setting": "PP", "value": "(83.74%)"}, {"measurement": "SAQ Question 1-3: Other reasons, number of patients", "setting": "PP", "value": 9}, {"measurement": "SAQ Question 1-3: Other reasons, percent of patients", "setting": "PP", "value": "(0.64%)"}, {"measurement": "SAQ Question 1-3: Severely limited, number of patients", "setting": "PP", "value": 2}, {"measurement": "SAQ Question 1-3: Severely limited, percent of patients", "setting": "PP", "value": "(0.14%)"}, {"measurement": "SAQ Question 1-3: Slightly limited, number of patients", "setting": "PP", "value": 182}, {"measurement": "SAQ Question 1-3: Slightly limited, percent of patients", "setting": "PP", "value": "(12.93%)"}, {"measurement": "SAQ Question 1-4: Mildly limited, number of patients", "setting": "PP", "value": 172}, {"measurement": "SAQ Question 1-4: Mildly limited, percent of patients", "setting": "PP", "value": "(12.23%)"}, {"measurement": "SAQ Question 1-4: Moderately limited, number of patients", "setting": "PP", "value": 37}, {"measurement": "SAQ Question 1-4: Moderately limited, percent of patients", "setting": "PP", "value": "(2.63%)"}, {"measurement": "SAQ Question 1-4: Not limited, number of patients", "setting": "PP", "value": 754}]}]}
